Consider one compound from paper PMC5218480 (PLoS ONE, 2017).

This assay deals with MV-4-11 cells. Description: Gene expression microarray analysis (Affymetrix PrimeView) and GSEA. Type of assay: cell-based, human. On the set-up: RFU PODN (11730768_x_at) / Fold change /veh PODN (11730768_x_at) / RFU LINC00158 (11744669_a_at) / Fold change /veh LINC00158 (11744669_a_at) / RFU DUSP10 (11751237_a_at) / Fold change /veh DUSP10 (11751237_a_at) / RFU ID3 (11757404_x_at) / Fold change /veh ID3 (11757404_x_at) / RFU PLEKHG5 (11737974_s_at) / Fold change /veh PLEKHG5 (11737974_s_at) / RFU LRRC4B (11730491_at) / Fold change /veh LRRC4B (11730491_at) / RFU GIMAP4 (11747438_a_at) / Fold change /veh GIMAP4 (11747438_a_at) / RFU KRT8 (11758183_x_at) / Fold change /veh KRT8 (11758183_x_at) / RFU CNN1 (11734310_a_at) / Fold change /veh CNN1 (11734310_a_at) / RFU VPS37D (11726825_at) / Fold change /veh VPS37D (11726825_at) / RFU C10orf10 (11716522_x_at) / Fold change /veh C10orf10 (11716522_x_at) / RFU KIR2DL2 /// KIR2DL4 /// KIR2DL5A /// KIR2DL5B /// KIR2DS1 /// KIR2DS2 /// KIR2DS3 /// KIR2DS4 /// KIR3DL3 /// KIR3DL3 /// KIR3DS1 (11738374_at) / Fold change /veh KIR2DL2 /// KIR2DL4 /// KIR2DL5A /// KIR2DL5B /// KIR2DS1 /// KIR2DS2 /// KIR2DS3 /// KIR2DS4 /// KIR3DL3 /// KIR3DL3 /// KIR3DS1 (11738374_at) / RFU C1QL1 (11718748_at) / Fold change /veh C1QL1 (11718748_at) / RFU TMPRSS4 (11747572_a_at) / Fold change /veh TMPRSS4 (11747572_a_at) / RFU HAMP (11756126_x_at) / Fold change /veh HAMP (11756126_x_at) / RFU RNFT2 (11725882_a_at) / Fold change /veh RNFT2 (11725882_a_at) / RFU NR4A2 (11747474_a_at) / Fold change /veh NR4A2 (11747474_a_at) / RFU ABCC12 (11746883_a_at) / Fold change /veh ABCC12 (11746883_a_at) / RFU TMEM136 (11760407_x_at) / Fold change /veh TMEM136 (11760407_x_at) / RFU CLDN22 /// WWC2 (11732394_at) / Fold change /veh CLDN22 /// WWC2 (11732394_at) / RFU HLA-DPB1 (11760878_x_at) / Fold change /veh HLA-DPB1 (11760878_x_at) / RFU SPINT1 (11716480_a_at) / Fold change /veh SPINT1 (11716480_a_at) / RFU GAP43 (11754022_s_at) / Fold change /veh GAP43 (11754022_s_at) / RFU A4GNT (11735810_at) / Fold change /veh A4GNT (11735810_at) / RFU PRB3 (11715151_x_at) / Fold change /veh PRB3 (11715151_x_at) / RFU TUBB4B (11761932_at) / Fold change /veh TUBB4B (11761932_at) / RFU CAPN14 (11732068_a_at) / Fold change /veh CAPN14 (11732068_a_at) / RFU TMCC2 (11721928_a_at) / Fold change /veh TMCC2 (11721928_a_at) / RFU IRGQ (11745062_a_at) / Fold change /veh IRGQ (11745062_a_at) / RFU FAM174B (11720279_a_at) / Fold change /veh FAM174B (11720279_a_at) / RFU TMPRSS4 (11748680_a_at) / Fold change /veh TMPRSS4 (11748680_a_at) / RFU FAM212B (11763350_a_at) / Fold change /veh FAM212B (11763350_a_at) / RFU PLEKHG5 (11743358_a_at) / Fold change /veh PLEKHG5 (11743358_a_at) / RFU ZSCAN30 (11745921_a_at) / Fold change /veh ZSCAN30 (11745921_a_at) / RFU CMKLR1 (11741424_a_at) / Fold change /veh CMKLR1 (11741424_a_at) / RFU LOC101060620 /// MAPK8IP1 (11723275_at) / Fold change /veh LOC101060620 /// MAPK8IP1 (11723275_at) / RFU SPTSSB (11747773_x_at) / Fold change /veh SPTSSB (11747773_x_at) / RFU PRSS12 (11739890_at) / Fold change /veh PRSS12 (11739890_at) / RFU BIN1 (11741810_x_at) / Fold change /veh BIN1 (11741810_x_at) / RFU WNT11 (11732464_a_at) / Fold change /veh WNT11 (11732464_a_at) / RFU C10orf10 (11716521_a_at) / Fold change /veh C10orf10 (11716521_a_at) / RFU C5orf56 (11738089_at) / Fold change /veh C5orf56 (11738089_at) / RFU CYB561 (11721691_x_at) / Fold change /veh CYB561 (11721691_x_at) / RFU ANKRD19P (11752326_a_at) / Fold change /veh ANKRD19P (11752326_a_at) / RFU OR2T12 /// OR2T33 /// OR2T8 (11738714_s_at) / Fold change /veh OR2T12 /// OR2T33 /// OR2T8 (11738714_s_at) / RFU VCAN (11748164_a_at) / Fold change /veh VCAN (11748164_a_at) / RFU JSRP1 (11732532_at) / Fold change /veh JSRP1 (11732532_at) / RFU KRTAP10-11 (11738290_x_at) / Fold change /veh KRTAP10-11 (11738290_x_at) / RFU MYO3A (11730013_a_at) / Fold change /veh MYO3A (11730013_a_at) / RFU EBF3 (11725865_a_at) / Fold change /veh EBF3 (11725865_a_at) / RFU CAMK2N1 (11719241_x_at) / Fold change /veh CAMK2N1 (11719241_x_at) / RFU C5orf56 (11738088_a_at) / Fold change /veh C5orf56 (11738088_a_at) / RFU OLFML3 (11715873_a_at) / Fold change /veh OLFML3 (11715873_a_at) / RFU LOC100653217 /// NTM (11731650_a_at) / Fold change /veh LOC100653217 /// NTM (11731650_a_at) / RFU MAPK11 (11762145_a_at) / Fold change /veh MAPK11 (11762145_a_at) / RFU FIZ1 (11724087_x_at) / Fold change /veh FIZ1 (11724087_x_at) / RFU OASL (11726364_x_at) / Fold change /veh OASL (11726364_x_at) / RFU SOX15 (11748057_x_at) / Fold change /veh SOX15 (11748057_x_at) / RFU CD79A (11719716_a_at) / Fold change /veh CD79A (11719716_a_at) / RFU HIST1H1D (11736915_at) / Fold change /veh HIST1H1D (11736915_at) / RFU CASKIN2 (11723855_a_at) / Fold change /veh CASKIN2 (11723855_a_at) / RFU LOC730098 (11760151_x_at) / Fold change /veh LOC730098 (11760151_x_at) / RFU OR4N2 (11742367_at) / Fold change /veh OR4N2 (11742367_at) / RFU PRRT2 (11749266_a_at) / Fold change /veh PRRT2 (11749266_a_at) / RFU SNX32 (11753110_a_at) / Fold change /veh SNX32 (11753110_a_at) / RFU CDHR5 (11726645_a_at) / Fold change /veh CDHR5 (11726645_a_at) / RFU RCAN1 (11760418_a_at) / Fold change /veh RCAN1 (11760418_a_at) / RFU FAM167A (11723789_a_at) / Fold change /veh FAM167A (11723789_a_at) / RFU FAM26E (11764081_at) / Fold change /veh FAM26E (11764081_at) / RFU ISYNA1 (11749810_s_at) / Fold change /veh ISYNA1 (11749810_s_at) / RFU ACY1 (11761880_at) / Fold change /veh ACY1 (11761880_at) / RFU 11764098_at / Fold change /veh 11764098_at / RFU SAMD14 (11745864_x_at) / Fold change /veh SAMD14 (11745864_x_at) / RFU NPB (11741838_a_at) / Fold change /veh NPB (11741838_a_at) / RFU TMPRSS6 (11731388_a_at) / Fold change /veh TMPRSS6 (11731388_a_at) / RFU KRTAP10-2 (11738614_at) / Fold change /veh KRTAP10-2 (11738614_at) / RFU ARHGAP8 /// PRR5-ARHGAP8 (11727945_x_at) / Fold change /veh ARHGAP8 /// PRR5-ARHGAP8 (11727945_x_at) / RFU KRTAP5-7 /// NADSYN1 (11734609_at) / Fold change /veh KRTAP5-7 /// NADSYN1 (11734609_at) / RFU RASL12 (11751679_a_at) / Fold change /veh RASL12 (11751679_a_at) / RFU CDKN2B (11736163_a_at) / Fold change /veh CDKN2B (11736163_a_at) / RFU PRF1 (11729649_at) / Fold change /veh PRF1 (11729649_at) / RFU, ZNF638 /// ZNF638-IT1 / Fold change vs veh, ZNF638 /// ZNF638-IT1 / RFU, PANK3 / Fold change vs veh, PANK3 / RFU, SH3YL1 / Fold change vs veh, SH3YL1 / RFU, ZEB2 / Fold change vs veh, ZEB2 / RFU, NRIP1 / Fold change vs veh, NRIP1 / RFU, PTTG1IP / Fold change vs veh, PTTG1IP / RFU, CAPN2 / Fold change vs veh, CAPN2 / RFU, MED14 / Fold change vs veh, MED14 / RFU, SNORA58 / Fold change vs veh, SNORA58 / RFU, C1orf63 / Fold change vs veh, C1orf63 / RFU, LRRFIP1 / Fold change vs veh, LRRFIP1 / RFU, NDUFAF7 / Fold change vs veh, NDUFAF7 / RFU, SLC12A2 / Fold change vs veh, SLC12A2 / RFU, IBTK / Fold change vs veh, IBTK / RFU, ESF1 / Fold change vs veh, ESF1 / Fold change vs veh, TMEM50B / RFU, TAOK1 / Fold change vs veh, TAOK1 / RFU, ACBD3 / Fold change vs veh, ACBD3 / RFU, TMA16 / Fold change vs veh, TMA16 / RFU, RWDD3 / Fold change vs veh, RWDD3 / RFU, BCAT1 / Fold change vs veh, BCAT1 / RFU, EDEM3 / Fold change vs veh, EDEM3 / RFU, TMEM33 / Fold change vs veh, TMEM33 / RFU, WDR75 / Fold change vs veh, WDR75 / RFU, AHCTF1 / Fold change vs veh, AHCTF1 / RFU, TFRC / Fold change vs veh, TFRC / RFU, ZDHHC17 / Fold change vs veh, ZDHHC17 / RFU, NOM1 / Fold change vs veh, NOM1 / RFU, ARL8B / Fold change vs veh, ARL8B / RFU, ZBTB11 / Fold change vs veh, ZBTB11 / RFU, TAMM41 / Fold change vs veh, TAMM41 / RFU, KIAA1704 /// LOC100996395 / Fold change vs veh, KIAA1704 /// LOC100996395 / RFU, ING1 / Fold change vs veh, ING1 / RFU, TRMT61B / Fold change vs veh, TRMT61B / RFU, FUBP3 / Fold change vs veh, FUBP3 / RFU, TP53 / Fold change vs veh, TP53 / RFU, TNKS2 / Fold change vs veh, TNKS2 / RFU, ZFP14 / Fold change vs veh, ZFP14 / RFU, ACTR2 / Fold change vs veh, ACTR2 / RFU, PPP3R1 / Fold change vs veh, PPP3R1 / RFU, PIK3R1 / Fold change vs veh, PIK3R1 / RFU, HNRNPA1 / Fold change vs veh, HNRNPA1 / RFU, RNF170 / Fold change vs veh, RNF170 / RFU, ZNF28 / Fold change vs veh, ZNF28 / RFU, RNGTT / Fold change vs veh, RNGTT / RFU, OGT / Fold change vs veh, OGT / RFU, BRD1 / Fold change vs veh, BRD1 / RFU, MARS / Fold change vs veh, MARS / RFU, ZNF655 / Fold change vs veh, ZNF655 / RFU, FAHD1 / Fold change vs veh, FAHD1 / RFU, BDP1 / Fold change vs veh, BDP1 / RFU, LRRCC1 / Fold change vs veh, LRRCC1 / RFU, ARID1A / Fold change vs veh, ARID1A / RFU, ZNF146 / Fold change vs veh, ZNF146 / RFU, ZNF330 / Fold change vs veh, ZNF330 / RFU, GPN3 / Fold change vs veh, GPN3 / RFU, C9orf123 / Fold change vs veh, C9orf123 / RFU, N4BP2L2 / Fold change vs veh, N4BP2L2 / RFU, ARFIP1 / Fold change vs veh, ARFIP1 / RFU, FAM179B / Fold change vs veh, FAM179B / RFU, BCL10 / Fold change vs veh, BCL10 / RFU, UHRF1BP1L / Fold change vs veh, UHRF1BP1L / RFU, BET1 / Fold change vs veh, BET1 / RFU, CNOT2 / Fold change vs veh, CNOT2 / RFU, ZNF268 / Fold change vs veh, ZNF268 / Fold change vs veh, ZNF507 / RFU, DGCR2 / Fold change vs veh, DGCR2 / RFU, WDSUB1 / Fold change vs veh, WDSUB1 / Fold change vs veh, HSP90B1 /// MIR3652 / RFU, ADSS / Fold change vs veh, ADSS / RFU, GK / Fold change vs veh, GK / RFU, ZNF148 / Fold change vs veh, ZNF148 / RFU, TAF9 / Fold change vs veh, TAF9 / RFU, SLC1A5 / Fold change vs veh, SLC1A5 / RFU, SLMO2 / Fold change vs veh, SLMO2 / RFU, ABCC4 / Fold change vs veh, ABCC4 / RFU, LOC101060439 /// RAP1B / Fold change vs veh, LOC101060439 /// RAP1B / RFU, RFX7 / Fold change vs veh, RFX7 / RFU, GTPBP10 / Fold change vs veh, GTPBP10 / RFU, CNEP1R1 / Fold change vs veh, CNEP1R1 / RFU, BIVM-ERCC5 /// ERCC5 / Fold change vs veh, BIVM-ERCC5 /// ERCC5 / RFU, ILF3 / Fold change vs veh, ILF3 / RFU 11762660_at / Fold change /veh 11762660_at / RFU VCAN (11757783_s_at) / Fold change /veh VCAN (11757783_s_at) / RFU DDX43 (11728927_at) / Fold change /veh DDX43 (11728927_at) / RFU KRT8 (11758188_x_at) / Fold change /veh KRT8 (11758188_x_at) / RFU NKD1 (11759106_at) / Fold change /veh NKD1 (11759106_at) / RFU SRD5A1 (11742802_a_at) / Fold change /veh SRD5A1 (11742802_a_at) / RFU TPSAB1 /// TPSB2 (11721975_s_at) / Fold change /veh TPSAB1 /// TPSB2 (11721975_s_at) / RFU GSTM3 (11746129_a_at) / Fold change /veh GSTM3 (11746129_a_at) / RFU IL23R (11737362_x_at) / Fold change /veh IL23R (11737362_x_at) / RFU TMEM51 (11727254_a_at) / Fold change /veh TMEM51 (11727254_a_at) / RFU PIWIL2 (11732686_x_at) / Fold change /veh PIWIL2 (11732686_x_at) / RFU ORM1 (11744905_x_at) / Fold change /veh ORM1 (11744905_x_at) / RFU CCDC152 (11743942_at) / Fold change /veh CCDC152 (11743942_at) / RFU ECM1 (11717891_a_at) / Fold change /veh ECM1 (11717891_a_at) / RFU IL23R (11748794_a_at) / Fold change /veh IL23R (11748794_a_at) / RFU TNFAIP8L3 (11732012_x_at) / Fold change /veh TNFAIP8L3 (11732012_x_at) / RFU MBOAT4 (11741988_at) / Fold change /veh MBOAT4 (11741988_at) / RFU 11764193_at / Fold change /veh 11764193_at / RFU TMEM53 (11763286_at) / Fold change /veh TMEM53 (11763286_at) / RFU MAGEB2 (11727129_at) / Fold change /veh MAGEB2 (11727129_at) / RFU TMEM200A (11744735_a_at) / Fold change /veh TMEM200A (11744735_a_at) / RFU CCDC152 (11751479_a_at) / Fold change /veh CCDC152 (11751479_a_at) / RFU FAM211A (11726209_a_at) / Fold change /veh FAM211A (11726209_a_at) / RFU RGS16 (11746705_a_at) / Fold change /veh RGS16 (11746705_a_at) / RFU VCAN (11755009_s_at) / Fold change /veh VCAN (11755009_s_at) / RFU RHOB (11743442_s_at) / Fold change /veh RHOB (11743442_s_at) / RFU RGS16 (11720943_a_at) / Fold change /veh RGS16 (11720943_a_at) / RFU RGS16 (11720944_at) / Fold change /veh RGS16 (11720944_at) / RFU, VPS4B / Fold change vs veh, VPS4B / RFU, CREB1 / Fold change vs veh, CREB1 / RFU, DNAJC13 / Fold change vs veh, DNAJC13 / RFU, GNAQ / Fold change vs veh, GNAQ / RFU, CDK5R1 / Fold change vs veh, CDK5R1 / RFU, ZRANB3 / Fold change vs veh, ZRANB3 / RFU, CUL4A / Fold change vs veh, CUL4A / RFU, CCNY / Fold change vs veh, CCNY / RFU, UFL1 / Fold change vs veh, UFL1 / RFU, COG3 / Fold change vs veh, COG3 / RFU, DIAPH2 / Fold change vs veh, DIAPH2 / RFU, SKA2 / Fold change vs veh, SKA2 / RFU, AFF3 / Fold change vs veh, AFF3 / RFU, LMF1 / Fold change vs veh, LMF1 / RFU, IPO11 / Fold change vs veh, IPO11 / RFU, DFFB / Fold change vs veh, DFFB / RFU, FOXP1 / Fold change vs veh, FOXP1 / RFU, CARD8 / Fold change vs veh, CARD8 / RFU, STRN3 / Fold change vs veh, STRN3 / RFU, ADK / Fold change vs veh, ADK / RFU, RASSF2 / Fold change vs veh, RASSF2 / RFU, WIPF1 / Fold change vs veh, WIPF1 / RFU, LARP1B / Fold change vs veh, LARP1B / RFU, RASA1 / Fold change vs veh, RASA1 / RFU, RB1 / Fold change vs veh, RB1 / RFU, PPFIA1 / Fold change vs veh, PPFIA1 / RFU, MAT2A / Fold change vs veh, MAT2A / RFU, CCT5 / Fold change vs veh, CCT5 / RFU, WDR92 / Fold change vs veh, WDR92 / RFU, CUX1 / Fold change vs veh, CUX1 / RFU, TTC7A / Fold change vs veh, TTC7A / RFU, TMEM135 / Fold change vs veh, TMEM135 / RFU, DEPTOR / Fold change vs veh, DEPTOR / RFU, CPM / Fold change vs veh, CPM / RFU, DNAJB6 / Fold change vs veh, DNAJB6 / RFU, CACNA2D3 / Fold change vs veh, CACNA2D3 / RFU, DTX4 / Fold change vs veh, DTX4 / RFU, TFCP2 / Fold change vs veh, TFCP2 / RFU, GMCL1 /// GMCL1P1 / Fold change vs veh, GMCL1 /// GMCL1P1 / RFU, AEBP2 / Fold change vs veh, AEBP2 / RFU, SNHG1 /// SNORD22 /// SNORD25 /// SNORD26 /// SNORD27 /// SNORD28 /// SNORD29 /// SNORD31 / Fold change vs veh, SNHG1 /// SNORD22 /// SNORD25 /// SNORD26 /// SNORD27 /// SNORD28 /// SNORD29 /// SNORD31 / Fold change (Aza/veh), C12orf56 (ProbeSet 11735607_a_at) / Fold change (ACY-1035/veh), C12orf56 (ProbeSet 11735607_a_at) / Fold change (Aza/veh), FGFR1OP (ProbeSet 11751329_s_at) / Fold change (ACY-1035/veh), FGFR1OP (ProbeSet 11751329_s_at) / Fold change (Aza/veh), VPS36 (ProbeSet 11739960_a_at) / Fold change (ACY-1035/veh), VPS36 (ProbeSet 11739960_a_at) / RFU SYPL1 (11715823_x_at) / Fold change /veh SYPL1 (11715823_x_at) / RFU IGFBP7 (11715501_s_at) / Fold change /veh IGFBP7 (11715501_s_at) / RFU REEP3 (11722064_at) / Fold change /veh REEP3 (11722064_at) / RFU IGLL1 (11728026_x_at) / Fold change /veh IGLL1 (11728026_x_at): dose or concentration left out as unconfirmed. The note with it: ProbeSet 11725787_a_at; LIST B.

In the case of `Nc1ncn([C@@H]2O[C@H](CO)[C@@H](O)[C@H]2O)c(=O)n1` [azacitidine], the “Fold change vs veh, TMA16” value is 0.94.
